Measurements taken from patent US20230310813A1, “DIMERIC NAPHTHALIMIDE COATING” (ALUCENT BIOMEDICAL, INC., priority 2020, published 2023).
Values joined by “and” are separate entries in the source; they are usually repeats but may differ in a detail not shown here. Equal values may be shown once. “Also recorded” adds a separate entry of the source.

What was measured:
Format in all cases: physicochemical
[1] = Stability of coated balloon in reduced oxygen and reduced moisture packaging; details: coated balloon stored in reduced oxygen and reduced moisture packaging
Procedure: Packaged coated balloons were prepared as follows. A coated balloon from Example 3 was placed in a foil pouch. The concentration of oxygen within the foil pouch was reduced by purging with nitrogen. A desiccant was added to the foil pouch before sealing the oxygen-purged foil pouch comprising the coated balloon and the desiccant.
At various time points after packaging, a coated balloon was taken out of its packaging. A sample of the coating on the coated balloon was removed and analyzed.

[2] = 10-8-10 stability over 8 hours in solvent systems
Procedure: The purity of a composition was analyzed by UPLC or HPLC.
(§1) The non-limiting exemplary and comparative solvent systems listed in Table 1 were prepared by combining the components of the solvent system at the indicated concentrations. The resulting mixture was then mixed at room temperature until a colorless, clear mixture was obtained. Compound of Formula (I) was then added in the indicated amount and the resulting mixture was mixed at room temperature until a yellow/orange translucent mixture was obtained.

[3] = Room temperature stability of coated balloons; details: for amount of main impurity by LC / formation of impurities over time: 25° C., 60% RH, 0-24 months
Procedure: Angioplasty balloons coated with the Compound of Formula (I) (“10-8-10 compound”) were tested for their stability at 25° C. over a period of 0, 3, 6, and 12 months. The products described in Table 4 were placed in storage at 25° C.
Samples of each article were taken after 0, 3, 6, 12, 18 and 24 months of storage at 25° C., 60% RH.

[4] = Solubility of Compound of Formula (I) in solvent systems
Procedure: as §1
(§2) The solubility and stability of solvent systems were determined.

[5] = Stability of coated balloon coating after sterilization (UPLC/HPLC)
Procedure: A solvent system was prepared by combining ethanol and water and acetic acid in a volume ratio of 89.5:10:0.5. The resulting mixture was then mixed at room temperature until a colorless, clear mixture was obtained. Compound of Formula (I) was then added in the indicated amount and the resulting mixture was mixed at room temperature until a yellow/orange translucent mixture was obtained. This mixture was applied to a 5 mm×60 mm balloon by a pipetting method. The coated balloon was then dried to evaporate the solvent. A coated balloon with a coating thickness of 10 μg/mm^2 was obtained. The calculated amount of Compound of Formula (I) on the coated balloon was 7759 μg.
Coated balloons from Example 3 were sterilized either by ethylene oxide sterilization (EO), gamma sterilization (Gamma) or electron beam sterilization (E-Beam). A group of control balloons was left untreated (Control). After sterilization, a sample of the coating on each of the coated balloons was removed and analyzed.

[6] = Storage stability in solvent systems
Procedure: as §2

[7] = coated balloon after electron beam sterilization (E-Beam)
[8] = coated balloon after ethylene oxide sterilization (EO)
[9] = coated balloon after gamma sterilization (Gamma)
[10] = coated balloon, Control (not sterilized)

increase in impurity concentration [1]: minimal
10-8-10 stability over 8 hours ([2]; solvent system 89.5% Ethanol/10% water/0.5% acetic acid): ✓
10-8-10 stability over 8 hours ([2]; solvent system 99.5% Ethanol/0.5% acetic acid): ✓
10-8-10 stability over 8 hours ([2]; solvent system Ethanol/IPA): ✓
degradation ([2]; solvent system comprising ethanol, water, and acetic acid): does not degrade appreciably
degradation ([3]; coated article stored at room temperature): degrades appreciably
degradation rate over time at room temperature ([3]; coating further comprising at least one antioxidant): reduced
amount of main impurity by LC / formation of impurities over time ([3]; coating with BHT vs coating of only Compound of Formula (I)): lower amounts; also recorded: reduction
amount of main impurity by LC / formation of impurities over time ([3]; coating with tromethamine vs coating of only Compound of Formula (I)): lower amounts; also recorded: reduction
Solubility >2% w/w ([4]; Table 1, solvent system 89.5% Ethanol/10% water/0.5% acetic acid): ✓
Solubility >2% w/w ([4]; Table 1, solvent system 99% Ethanol/1% Acetone): ✓
Solubility >2% w/w ([4]; Table 1, solvent system Ethanol/Acetone/BHT): ✓
Solubility >2% w/w ([4]; Table 1, solvent system Ethanol/MEK): ✓
Solubility >2% w/w ([4]; Table 2, EtOH/Acetic Acid (99.5:0.5)): ✓
Solubility >2% w/w ([4]; Table 2, EtOH/Water (90:10)): ✓
Solubility >2% w/w ([4]; Table 2, EtOH/Water (98:2)): ✓
Solubility >2% w/w ([4]; Table 2, EtOH/Water/Acetic Acid (89.5:10:0.5)): ✓
Solubility >2% w/w ([4]; Table 2, EtOH/Water/Acetic Acid (99.4:0.5:0.1)): ✓
degradation ([5]; coated article subjected to ethylene oxide sterilization): degrades appreciably
Compound of Formula (I) (HPLC area-%) [5, 10]: 98.33 HPLC area-% and 98.32 HPLC area-%
Total impurities (HPLC area-%) [5, 10]: 1.67 HPLC area-% and 1.68 HPLC area-%
Storage stability ([6]; EtOH/Water (90:10)): ✓
Storage stability ([6]; EtOH/Water/Acetic Acid (89.5:10:0.5)): ✓
solubility and stability ([6]; ethanol, water, acetic acid (89.5:10:0.5) solvent system): exhibited both solubility and stability
solubility and stability ([6]; ethanol/water (90:10) solvent system): exhibited both solubility and stability
SMILES: NCCOCCOCCNc1ccc2c3c(cccc13)C(=O)N(CCOCCOCCN1C(=O)c3cccc4c(NCCOCCOCCN)ccc(c34)C1=O)C2=O [Compound of Formula (I), 2,2′-((ethane-1,2-diylbis(oxy))bis(ethane-2,1-diyl))bis(6-((2-(2-(2-aminoethoxy)ethoxy)ethyl)amino)-1H-benzo[de]isoquinoline-1,3(2H)-dione)]
change in impurity concentration ([5]; coated article after radiation sterilization (gamma irradiation, electron beam)): No change or minimal increase; also recorded: minimal increase
Compound of Formula (I) (HPLC area-%) [5, 7]: 98.22 HPLC area-% and 98.33 HPLC area-% and 98.37 HPLC area-%
Total impurities (HPLC area-%) [5, 7]: 1.78 HPLC area-% and 1.67 HPLC area-% and 1.63 HPLC area-%
Compound of Formula (I) (HPLC area-%) [5, 8]: 94.75 HPLC area-% and 94.26 HPLC area-% and 94.35 HPLC area-%
Total impurities (HPLC area-%) [5, 8]: 5.25 HPLC area-% and 5.74 HPLC area-% and 5.65 HPLC area-%
Compound of Formula (I) (HPLC area-%) [5, 9]: 98.32 HPLC area-% and 98.37 HPLC area-% and 98.28 HPLC area-%
Total impurities (HPLC area-%) [5, 9]: 1.68 HPLC area-% and 1.63 HPLC area-% and 1.72 HPLC area-%
